Laboratory results from US20040001888A1, “Solid dosage forms for rapid dissolution of poorly soluble drugs” (BioPharm Solutions Inc., priority 2002, published 2004).
Values after ≈ are worked out from the molar mass of the structure shown. Read-outs that look alike come from different tables or passages of the source.

Assays:
[1] = cited from earlier work
[2] = Size distribution of drug-lipid droplets after dissolution (sub-micron particle sizer); type: physicochemical; settings: triamterene from active-release tablets
Procedure: The morphologies of triamterene after dissolution in 0.1 M HCl and in water were characterized using a sub-micron particle sizer. The aliquots collected at the end of dissolution were centrifuged under the same conditions as in Example 4 prior to measurement. […] The impregnated powder was suspended in 900 ml PBS buffer at 37° C. with stirring at 100 rpm. […] The aliquots were collected at programmed time intervals, followed by centrifugation at 1000 rpm in an Eppendorf tube for 1 min.

[3] = Water dispersity of triamterene-Gelucire 44/14 melts; type: physicochemical; settings: 30 mg triamterene in melted Gelucire, drug-lipid melt in 900 ml water
Procedure: To examine the compositions described above, triamterene was used as a model drug. […] In experiment, 30 mg triamterene was dissolved in various amounts of melted Gelucire to make the drug concentration to be 5%, 7.5%, 10% 12.5% 15% and 20%, respectively. Then the drug-lipid melts were dissolved in 900 ml of water. Up to 10% of triamterene in Gelucire, the drug was dispersed in water without precipitates. At higher drug contents (i.e. less lipids), precipitates were observed under a microscope. Drug concentration (in Gelucire) of 10% was selected-for later experiments.

mean diameter of droplets ([2]; dissolution in water): 277 nm
particles after dissolution ([2]; dissolution medium 0.1 M HCl): no particles were detected
drug concentration in Gelucire dispersed in water without precipitates [3]: Up to 10%
SMILES: Nc1nc(N)c2nc(-c3ccccc3)c(N)nc2n1 [triamterene]
solubility ([1]; pH 1 buffer): 321 µg/mL (≈ 1270 µM)
solubility ([1]; pH 7): 45 µg/mL (≈ 178 µM)
